This note sets out measurements from paper PMC6149822, “A New Series of Pyrrole-Based Chalcones: Synthesis and Evaluation of Antimicrobial Activity, Cytotoxicity, and Genotoxicity” (Molecules : A Journal of Synthetic Chemistry and Natural …, 2017).

Common to all, as to experiment: ATP luminescence microbial cell viability assay
Details in all cases: 24 h treatment, result in words

One experiment relates to C. albicans. The experiment is classed as cell-based, Candida albicans. As to the method:
(§1) A model from BioTek Instruments Inc. combined with a BacTiter-Glo^TM Microbial Cell Viability assay (Promega Corp., Madison, WI, USA) was used to provide a sensitive and rapid method for determining the number of viable microbial cells in culture based on quantitation of the ATP present. […] After incubation, cultures were added into the wells (final concentration of bacteria was 5 × 10^5 CFU/mL and 2.5 × 10^6 CFU/mL for yeasts). After adding the BacTiter reagent, incubation time for bacteria and yeasts was 5 min and 15 min, respectively.
The assay generates a “glow-type” luminescent signal, produced by the luciferase reaction. Briefly, after chemicals and strains were incubated for 24 h, 100 µL of the culture was taken from each well and mixed with the same volume of the BacTiter-Glo™ reagent in a white, opaque-walled microtiter plate. Control wells containing medium without cells were prepared to obtain a value for background luminescence. Cells without compound were used as an ATP-positive control. The microplates were further incubated under agitation for 7 min. Bioluminescence was recorded in a multi-detection microplate reader (BioTek Synergy 2 Multi-Mode Microplate Reader, BioTek Instruments, Winooski, VT, USA). […] Experiments were performed in triplicate and each sample was measured in four replicates.

A further experiment concerns E. faecalis (ATCC 29212). Type of experiment: cell-based, Enterococcus faecalis. On the procedure:
as §1
(§2) The assay generates a “glow-type” luminescent signal, produced by the luciferase reaction. Briefly, after chemicals and strains were incubated for 24 h, 100 µL of the culture was taken from each well and mixed with the same volume of the BacTiter-Glo™ reagent in a white, opaque-walled microtiter plate. Control wells containing medium without cells were prepared to obtain a value for background luminescence. Cells without compound were used as an ATP-positive control. The microplates were further incubated under agitation for 7 min. Bioluminescence was recorded in a multi-detection microplate reader (BioTek Synergy 2 Multi-Mode Microplate Reader, BioTek Instruments, Winooski, VT, USA). In Figure 3, results were given as percentage of untreated control, which is set at 100%. Experiments were performed in triplicate and each sample was measured in four replicates.

The next experiment relates to C. glabrata. Type of experiment: cell-based, Candida glabrata. As to the method:
as §1, §2

For the compound `Cn1cccc1C(=O)C=Cc1ccc(-c2ccc(Cl)cc2)o1` [Compound 7, 1-(1-Methyl-1H-pyrrol-2-yl)-3-(5-(4-chlorophenyl)furan-2-yl)prop-2-en-1-one], the “antifungal activity in ATP bioluminescence assay” value with C. albicans is recorded as “no statistically significant effects”; in the experiment with C. glabrata it was “antifungal activity close to ketoconazole”. Moreover, in the experiment with E. faecalis (ATCC 29212), the “antimicrobial activity in ATP bioluminescence assay” value is given as “sensitive”.
